Measurements as given in patent publication US6083964A, “Optical resolution of racemic aminoalkylpyridine anticonvulsants and (+) aminoalkylpyridine enantiomers as highly potent orally effective anticonvulsant drugs and excitatory amino acid antagonists” (K and K Biosciences, Inc., priority 1999, dated 2000).

Experiments:
[1] = tested on: hippocampal kindled rats; assay: Hippocampal kindled rat model, i.p.; format: in vivo; parameters: key to Seizure Score ± S.E.M.: Racine seizure class scale; class 5 = rearing and falling; details: for seizure score and afterdischarge duration (in words): hippocampal kindled rat
Description: "Kindling" refers to the process whereby repeated administration of an initially subconvulsive electrical stimulus results in progressive intensification of epileptic discharge culminating in a generalized seizure. Kindling can be induced by electrical stimulation of many sites in the brain, especially in "limbic" areas, which include amygdala, hippocampus, and entorhinal cortex [Racine, R., Neurosurgery, 3, 234-252 (1978)]. Kindling is reliably produced by a one second train of 60 Hz square wave stimuli of one millisecond duration at current levels which initially produce only a slight afterdischarge (AD), but no behavioral response. Repeated stimulation, typically once daily, results in a progressive increase in AD amplitude, duration and complexity with subsequent spread to other brain areas culminating in a fully generalized motor seizure. [Racine, R. J. and Zaide, J., In "Mechanisms, the Continuing Evolution of the Limbic System Concept" (K. E. Livingston and O. Hornykiewicz, eds.), Plenum Press, pp. 457-493, 1978.
The development of kindling in the rat has been characterized by five (1 to 5) behavioral and electrographic "classes". The behavior in classes 1 (facial clonus) and 2 (head nodding) mimics that found in human complex partial seizures; the behavior in other classes would be consistent with limbic seizures evolving to generalized motor seizures. An animal is considered to be fully kindled once the enhanced sensitivity has developed, as evidenced by a class 5 seizure (rearing and falling).
The (+) AAP enantiomer, compound 1 in Table 1, was tested in the hippocampal kindled rat, by the i.p. route. […]
The (-) AAP enantiomer, compound 2 in Table 1, was also tested in the hippocampal kindled rat, by the i.p. route.

[2] = tested on: pentylenetetrazol (Metrazole) seizure threshold in mice; assay: Timed intravenous Metrazol (PTZ) seizure threshold test in mice, i.p.; format: in vivo, mouse; details: for time to twitch: control 33.03; for PTZ dose for the clonus component: control 37.60; for time to clonus: control 39.71
Description: A compound that is active in the MES test and prevents seizure spread, can lower seizure threshold at the same time. Such a compound would have proconvulsant activity while at the same time prevent generalized tonic seizures. […] The timed intravenous pentylenetetrazol (Metrazol) seizure threshold test in mice identifies those MES compounds with proconvulsant potential.
Mice were given the (+) and (-) enantiomers, compounds 1 and 2 in Table 1, intraperitoneally at the ED50 and TD50. At the time of maximal MES activity, an intravenous infusion of 0.5% heparinized solution of pentylenetetrazol (PT2) (0.34 ml/min) was started. The time to the appearance of the first myoclonic jerk (twitch) and the subsequent sustained clonic seizure (clonus) were the measured endpoints. Results were obtained for groups of ten treated and ten saline control mice and converted to the dose in mg/kg of PTZ necessary to produce the two endpoints.
Experiments were performed using three doses of 0, 36 and 149 mg/kg on each of 10 animals per dosage group. The time to "twitch" and the time to "clonus", the two components of the seizure elicited by the infusion of metrazol, were observed.

[3] = tested on: maximal electroshock seizure (MES) in rats; assay: Maximal electroshock seizure (MES) test, rats, p.o.; format: in vivo, rat (Sprague-Dawley); details: rat, p.o., listed as (1) (+) Enantiomer
Description: The (+) AAP enantiomers obtained by optical resolution of racemic AAPs and the resulting highly orally effective anticonvulsant compositions of this invention are useful in the treatment of convulsive disorders. […] A series of (+) AAP enantiomers and (-) AAP enantiomers of this invention has been evaluated for anticonvulsant activity by the intraperitoneal (i.p.) and by the oral (p.o.) route using two standard seizure models in the mouse and in the rat, the maximal electroshock seizure (MES) test and the subcutaneous pentylenetetrazol (Metrazole) seizure threshold (scMet) test. […] The following Table 2 presents the results of these anticonvulsant tests with respect to several (+) and (-) AAP enantiomeric compounds derived from optical resolution of racemic AAPs of the present invention. This Table 2 identifies the specific compounds tested by their chemical name and provides the test model, the route of administration, the animal species used, and the anticonvulsant activity and toxicity in terms of ED50 and TD50 values, (the median effective and toxic dose respectively), when intraperitoneally administered to mice, and when orally administered to rats. The Maximal Electroshock Seizure Test (MES): Maximal electroshock seizures are elicited with a 60 Hz alternating current of 50 mA intensity in mice and about 150 mA intensity in rats (5-7 times that necessary to elicit minimal electroshock seizures), delivered for 0.2 sec via corneal electrodes. A drop of 0.9% saline is instilled in the eye prior to application of the electrodes in order to […]. Abolition of the hind limb tonic extension component of the seizure is defined as protection and results are expressed as number of animals protected/number of animals tested. The Subcutaneous Pentylenetetrazol (Metrazole) Seizure Threshold Test (scMet): A 0.5% solution of 85 mg/kg of pentylenetetrazol is administered subcutaneously in the posterior midline 30 minutes or 4 hours after drug administration to the animal. […] This species will be the subject of the complete anticonvulsant quantification test evaluation as described above, but after oral (gavage) administration of the candidate compound.

CC(Nc1ccc(Cl)cc1)c1ccncc1 (single isomer, unassigned; (+)) [Compound 1, (+) N-(4-Chlorophenyl)-1-(4-pyridyl)ethylamine]
Afterdischarge Duration (sec) ± S.E.M. ([1]; 25 mg/kg i.p., 15 min): 76.63 ± 7.34 s
Seizure Score ± S.E.M. ([1]; 25 mg/kg i.p., 15 min): 4.63 ± 0.18
# Protected/# Tested ([1]; 25 mg/kg i.p., 45 min): 2/8
Afterdischarge Duration (sec) ± S.E.M. ([1]; 25 mg/kg i.p., 45 min): 54.63 ± 12.54 s
Seizure Score ± S.E.M. ([1]; 25 mg/kg i.p., 45 min): 3.75 ± 0.65
Afterdischarge Duration (sec) ± S.E.M. ([1]; 25 mg/kg i.p., 75 min): 62.75 ± 10.46 s
Seizure Score ± S.E.M. ([1]; 25 mg/kg i.p., 75 min): 4.13 ± 0.48
Afterdischarge Duration (sec) ± S.E.M. ([1]; 25 mg/kg i.p., 105 min): 74.75 ± 6.44 s
Seizure Score ± S.E.M. ([1]; 25 mg/kg i.p., 105 min): 5.00 ± 0.00
Seizure Score ± S.E.M. ([1]; 25 mg/kg i.p., 135 min): 4.50 ± 0.19
Afterdischarge Duration (sec) ± S.E.M. ([1]; 50 mg/kg i.p., 15 min): 56.43 ± 7.60 s
Seizure Score ± S.E.M. ([1]; 50 mg/kg i.p., 15 min): 3.75 ± 0.53
# Protected/# Tested ([1]; 50 mg/kg i.p., 45 min): 2/8
Afterdischarge Duration (sec) ± S.E.M. ([1]; 50 mg/kg i.p., 45 min): 63.38 ± 10.75 s
Seizure Score ± S.E.M. ([1]; 50 mg/kg i.p., 45 min): 4.13 ± 0.40
Afterdischarge Duration (sec) ± S.E.M. ([1]; 50 mg/kg i.p., 75 min): 63.14 ± 6.38 s
Seizure Score ± S.E.M. ([1]; 50 mg/kg i.p., 75 min): 4.71 ± 0.18
Afterdischarge Duration (sec) ± S.E.M. ([1]; 50 mg/kg i.p., 105 min): 74.57 ± 11.58 s
Seizure Score ± S.E.M. ([1]; 50 mg/kg i.p., 105 min): 4.71 ± 0.18
Afterdischarge Duration (sec) ± S.E.M. ([1]; 50 mg/kg i.p., 135 min): 61.43 ± 12.97 s
Seizure Score ± S.E.M. ([1]; 50 mg/kg i.p., 135 min): 4.00 ± 0.69
Afterdischarge Duration (sec) ± S.E.M. ([1]; 50 mg/kg i.p., 165 min): 73.14 ± 9.41 s
Seizure Score ± S.E.M. ([1]; 50 mg/kg i.p., 165 min): 4.57 ± 0.20
Afterdischarge Duration (sec) ± S.E.M. ([1]; 75 mg/kg i.p., 15 min): 63.29 ± 6.70 s
Seizure Score ± S.E.M. ([1]; 75 mg/kg i.p., 15 min, * significantly different from control): 2.86 ± 0.59
# Protected/# Tested ([1]; 75 mg/kg i.p., 45 min): 5/7
Afterdischarge Duration (sec) ± S.E.M. ([1]; 75 mg/kg i.p., 45 min): 55.43 ± 10.39 s
Seizure Score ± S.E.M. ([1]; 75 mg/kg i.p., 45 min, * significantly different from control): 2.43 ± 0.69
Afterdischarge Duration (sec) ± S.E.M. ([1]; 75 mg/kg i.p., 75 min): 74.57 ± 10.36 s
Seizure Score ± S.E.M. ([1]; 75 mg/kg i.p., 75 min, * significantly different from control): 2.86 ± 0.59
Afterdischarge Duration (sec) ± S.E.M. ([1]; 75 mg/kg i.p., 105 min): 68.57 ± 5.52 s
Seizure Score ± S.E.M. ([1]; 75 mg/kg i.p., 105 min, * significantly different from control): 3.86 ± 0.34
Afterdischarge Duration (sec) ± S.E.M. ([1]; 75 mg/kg i.p., 135 min): 65.00 ± 4.12 s
Seizure Score ± S.E.M. ([1]; 75 mg/kg i.p., 135 min): 4.14 ± 0.26
Afterdischarge Duration (sec) ± S.E.M. ([1]; 100 mg/kg i.p., 15 min): 63.43 ± 11.37 s
Seizure Score ± S.E.M. ([1]; 100 mg/kg i.p., 15 min, Table 3 value * significantly different from control): 2.00 ± 0.69
# Protected/# Tested ([1]; 100 mg/kg i.p., 45 min): 6/7
Afterdischarge Duration (sec) ± S.E.M. ([1]; 100 mg/kg i.p., 45 min): 63.29 ± 4.76 s
Seizure Score ± S.E.M. ([1]; 100 mg/kg i.p., 45 min, Table 3 value * significantly different from control): 2.00 ± 0.58
Afterdischarge Duration (sec) ± S.E.M. ([1]; 100 mg/kg i.p., 75 min): 75.43 ± 9.70 s
Seizure Score ± S.E.M. ([1]; 100 mg/kg i.p., 75 min, Table 3 value * significantly different from control): 2.29 ± 0.61
Afterdischarge Duration (sec) ± S.E.M. ([1]; 100 mg/kg i.p., 105 min): 71.00 ± 5.35 s
Seizure Score ± S.E.M. ([1]; 100 mg/kg i.p., 105 min, Table 3 value * significantly different from control): 2.29 ± 0.71
ED50 ([1]; Rattus norvegicus, ip, 0.75 h, hippocampal kindled rats, 45 min, 95% C.I. printed b332): 54.9 mg/kg
Slope ([1]; dose response, hippocampal kindled rats, i.p., 45 min): 2.93 ± 1.16
seizure score and afterdischarge duration (in words) ([1]; i.p.): significantly reduced seizure score and afterdischarge duration and the effect was dose-dependent
seizure score and afterdischarge duration (in words) ([1]; i.p., listed as (+) N-(4-chlorophenyl)-1-(4-pyridyl)ethylamine): significantly reduced from that of the control
time to twitch ([2]; 36 mg/kg dosage group): 34.91 s
PTZ dose for the clonus component ([2]; 36 mg/kg dosage group): 46.84 mg/kg
time to clonus ([2]; 36 mg/kg dosage group): 48.56 s
PTZ dose for the twitch component ([2]; 149 mg/kg dosage group, control 31.23): 33.31 mg/kg
time to twitch ([2]; 149 mg/kg dosage group): 35.01 s
PTZ dose for the clonus component ([2]; 149 mg/kg dosage group): 74.13 mg/kg
time to clonus ([2]; 149 mg/kg dosage group): 77.56 s
amount of PTZ required to produce the twitch and clonus and time to twitch and time to clonus (in words) ([2]; mice): significantly raised
ED50 ([3]; MES test): 10.2 mg/kg
P.I. (protective index, TD50/ED50) ([3]; MES): > 49.1
